The test system of this experiment is N. fowleri strain Nf69 (ATCC 30215) trophozoites. In words: Determination of EC50 values against Naegleria fowleri (growth inhibition, CellTiter Glo, 48 h). It is filed as cell-based. The following applies: ATCC30215, N. fowleri Nf69 trophozoites, 48 h culture, 37° C., CellTiter Glo luminescence, read-out: EC50 uM against N. fowleri. A digest of the protocol:
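Axenic Nf69 trophozoites in Nelson's complete medium with 10% FBS exposed to compound, initially 20–0.375 μM, for 48 h at 37 °C, 5% CO2. Viability read by CellTiter-Glo luminescence; % growth inhibition versus controls, triplicate averages fitted for EC50, with lower ranges used for very potent compounds.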
On the technique in general: ATP-based viability assays read luminescence as a measure of living cells.

For orientation: EC50 means the midpoint of the concentration-response curve.

Turning to `CC(C)(C)C(=O)N1CCC[C@@H]2c3nc4cc(Cl)c(Cl)cc4c(=O)n3CC[C@H]21` (racemic) [trans-7d, (±)-(4aR,13bS)-10,11-dichloro-4-pivaloyl-1,2,3,4,4a,5,6,13b-octahydro-8H-[1,6]naphthyridino[5,6-b]quinazolin-8-one], the EC50 was above 10 µM.
Under `COc1cc2nc3n(c(=O)c2cc1Cl)CC[C@@H]1[C@@H]3CCCN1CC1COC1` (racemic) [trans-7dd, (±)-(4aR,13bS)-10-chloro-11-methoxy-4-(oxetan-3-ylmethyl)-1,2,3,4,4a,5,6,13b-octahydro-8H-[1,6]naphthyridino[5,6-b]quinazolin-8-one] stands 0.0001 to 0.1 µM; under `O=C(C1CCOCC1)N1CCC[C@@H]2c3nc4cc(Cl)c(Cl)cc4c(=O)n3CC[C@H]21` (racemic) [trans-7e, (±)-(4aR,13bS)-10,11-dichloro-4-(tetrahydro-2H-pyran-4-carbonyl)-1,2,3,4,4a,5,6,13b-octahydro-8H-[1,6]naphthyridino[5,6-b]quinazolin-8-one], above 10 µM; under `COc1cc2nc3n(c(=O)c2cc1Cl)CC[C@@H]1[C@@H]3CCCN1CC(C)C` (racemic) [trans-7ee, (±)-(4aR,13bS)-10-chloro-4-isobutyl-11-methoxy-1,2,3,4,4a,5,6,13b-octahydro-8H-[1,6]naphthyridino[5,6-b]quinazolin-8-one], 0.1 to 1 µM.
As for `O=C(N1CCOCC1)N1CCC[C@@H]2c3nc4cc(Cl)c(Cl)cc4c(=O)n3CC[C@H]21` (racemic) [trans-7f, (±)-(4aR,13bS)-10,11-dichloro-4-(morpholine-4-carbonyl)-1,2,3,4,4a,5,6,13b-octahydro-8H-[1,6]naphthyridino[5,6-b]quinazolin-8-one], the EC50 was above 10 µM.
Under `COc1cc2nc3n(c(=O)c2cc1Cl)CC[C@@H]1[C@@H]3CCCN1CCOC(C)C` (racemic) [trans-7ff, (±)-(4aR,13bS)-10-chloro-4-(2-isopropoxyethyl)-11-methoxy-1,2,3,4,4a,5,6,13b-octahydro-8H-[1,6]naphthyridino[5,6-b]quinazolin-8-one] stands 0.1 to 1 µM; under `CN(C)CC(=O)N1CCC[C@@H]2c3nc4cc(Cl)c(Cl)cc4c(=O)n3CC[C@H]21` (racemic) [trans-7g, (±)-(4aR,13bS)-10,11-dichloro-4-(dimethylglycyl)-1,2,3,4,4a,5,6,13b-octahydro-8H-[1,6]naphthyridino[5,6-b]quinazolin-8-one], 0.1 to 1 µM.
Under `COc1cc2nc3n(c(=O)c2cc1Cl)CC[C@@H]1[C@@H]3CCCN1CC1CC1` (racemic) [trans-7gg, (±)-(4aR,13bS)-10-chloro-4-(cyclopropylmethyl)-11-methoxy-1,2,3,4,4a,5,6,13b-octahydro-8H-[1,6]naphthyridino[5,6-b]quinazolin-8-one] stands 0.0001 to 0.1 µM; under `O=C(c1ccccc1)N1CCC[C@@H]2c3nc4cc(Cl)c(Cl)cc4c(=O)n3CC[C@H]21` (racemic) [trans-7h, (±)-(4aR,13bS)-4-benzoyl-10,11-dichloro-1,2,3,4,4a,5,6,13b-octahydro-8H-[1,6]naphthyridino[5,6-b]quinazolin-8-one], above 10 µM.
As for `COc1cc2nc3n(c(=O)c2cc1Cl)CC[C@@H]1[C@@H]3CCCN1CC1CCC1` (racemic) [trans-7hh, (±)-(4aR,13bS)-10-chloro-4-(cyclobutylmethyl)-11-methoxy-1,2,3,4,4a,5,6,13b-octahydro-8H-[1,6]naphthyridino[5,6-b]quinazolin-8-one], the EC50 lay within 0.0001 to 0.1 µM.
Consider `COCCN1CCC[C@@H]2c3nc4cc(Cl)c(Cl)cc4c(=O)n3CC[C@H]21` (racemic) [trans-7i, (±)-(4aR,13bS)-10,11-dichloro-4-(2-methoxyethyl)-1,2,3,4,4a,5,6,13b-octahydro-8H-[1,6]naphthyridino[5,6-b]quinazolin-8-one], for which the EC50 was in the range of 0.0001 to 0.1 µM.

The values above are taken from patent publication US20250154152A1, “INHIBITORS OF NAEGLERIA FOWLERI” (Wisconsin Alumni Research Foundation, priority 2023, published 2025).
